The values below come from patent US9616125B2, “Stable nocathiacin lyophilized injection agent” (priority 2013, dated 2017).

Series [1] can be described thus: Aqueous solubility of nocathiacin I versus pH (shake 24 h, filtration, HPLC).
Method: Excessive purified material of nocathiacin I is added in test tubes with stopper respectively, and a certain amounts of buffer solutions with pH 2, pH 3, pH 4, pH 5, pH 6 and pH 7 are added to ensure that the solutions are in a supersaturated state all the time, and the solutions are shaken for 24 h under room temperature. Then the solutions are filtered through a 0.22 millipore filter, and the subsequent filtrate is taken and fed in a high performance liquid chromatography to measure the drug contents. The chromatogram conditions are as follows. • Chromatographic column: Waters Symmetry, 150 mm×4.6 mm, 5 μm.
Mobile phase: A. distilled water containing 0.05% TFA; and B. acetonitrile containing 0.05% TFA.
Gradient: Gradient elution for 32 min, 30%-60% B.
Column temperature: 40° C., and rate of flow: 1 ml/min
Detection wavelength: 362 nm, and sample volume: 10 μl.
The subject of series [2] is vancomycin-resistant enterococcus (VRE). To be noted: cited from earlier work.
Series [3] relates to methicillin-resistant staphylococcus aureus (MRSA). To be noted: cited from earlier work.
Series [4] concerns penicillin-resistant streptococcus pneumoniae (PRSP). The note with it: cited from earlier work.
For series [5], the system named is mycobacterium tuberculosis. The note with it: cited from earlier work.

Take `C=C(NC(=O)c1csc(-c2nc3c(cc2O)-c2nc(cs2)C(=O)N[C@@H]([C@@H](C)O)C(=O)N/C(=C(\C)OC)c2nc(cs2)C(=O)N[C@@H]2c4nc(cs4)C(=O)N[C@@H](COC(=O)c4c5c6c(cccc6n4O)COC(=O)[C@@H](O[C@H]4C[C@](C)(O)[C@H](N(C)C)[C@H](C)O4)[C@H]2OC5)c2nc-3cs2)n1)C(N)=O.O=C(O)C(F)(F)F` [nocathiacin I]: the “concentration of nocathiacin I solution that can be obtained” value in series [1] (pH value of the liquid formulation controlled below 6) is “more than 0.5 mg/mL”. In addition, the “solubility of nocathiacin I as a function of pH” value in series [1] (within a scope of pH 1-7, FIG. 1) is “decreases with the increase of pH value”.
Take nocathiacin: the effective concentration entry in series [2], in series [3], in series [4] and in series [5] was “less than 1 μg/ml” each time.
